Data reported in patent US7446122B2, “Substituted indole derivatives” (Cephalon, Inc., priority 2003, dated 2008).
pIC50: −log10 of the molar value.

What was measured:
[1] = molecular target: T1, Cyclooxygenase-2 (human recombinant, expressed in Sf9 cell) (Homo sapiens, UniProt P35354); assay: Cox-2 assay: human recombinant cyclooxygenase-2, PGE2 by EIA; format: biochemical; conditions: human recombinant enzyme; for IC50: 0.3 μM arachidonic acid, PGE2; for inhibition at 10 µM: compounds are screened at 10 μM
T1 construct: purchased Cayman 60122; host or cells: Sf9 cell
T1 sequence (P35354 18-604): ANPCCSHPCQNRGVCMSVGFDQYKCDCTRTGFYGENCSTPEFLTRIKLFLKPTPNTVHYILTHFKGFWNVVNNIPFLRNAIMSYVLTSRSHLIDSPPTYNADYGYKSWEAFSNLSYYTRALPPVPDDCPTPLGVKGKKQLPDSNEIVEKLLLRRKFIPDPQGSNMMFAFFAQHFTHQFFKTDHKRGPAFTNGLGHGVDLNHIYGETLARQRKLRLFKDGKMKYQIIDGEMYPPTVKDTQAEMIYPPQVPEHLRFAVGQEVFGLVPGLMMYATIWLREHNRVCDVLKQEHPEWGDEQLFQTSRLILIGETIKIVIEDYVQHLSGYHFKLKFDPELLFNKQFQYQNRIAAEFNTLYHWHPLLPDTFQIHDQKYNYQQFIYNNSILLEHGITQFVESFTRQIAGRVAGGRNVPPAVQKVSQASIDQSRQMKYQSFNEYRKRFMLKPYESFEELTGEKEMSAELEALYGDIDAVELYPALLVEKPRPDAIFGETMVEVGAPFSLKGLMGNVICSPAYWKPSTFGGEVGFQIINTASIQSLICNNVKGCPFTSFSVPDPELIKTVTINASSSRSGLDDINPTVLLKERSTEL
Description: Test compound and/or vehicle is pre-incubated with 0.11 U cyclooxygenase-2, 1 mM reduced glutathione (GSH), 500 μM phenol and 1 μM hematin for 15 minutes at 37° C. The reaction is initiated by addition of 0.3 μM arachidonic acid as substrate in Tris-HCl pH 7.7 and terminated after a 5 minute incubation at 37° C. by addition of 1N HCl. Following centrifugation, substrate conversion to PGE2 is measured by an Amersham EIA kit. Compounds are screened at 10 μM. […] J. Physiol.

COX-1 = molecular target: T2, COX-1 (Homo sapiens, UniProt P23219); assay: Cox-1 assay: PGE2 formation in human platelets; format: cell-based; conditions: for IC50: arachidonic acid 100 μM, PGE2; for inhibition at 10 µM: compounds are screened at 10 μM
T2 construct: endogenous in cells; host or cells: human platelets
Description: Test compound and/or vehicle is incubated with human platelets (10^8/ml) containing the phospholipase inhibitor MLnFP (100 μM) for 15 minutes at 37° C. Arachidonic acid (100 μM) is then added for a further 15 minute incubation period. The reaction is stopped by addition of 1 N HCl and neutralized with 1N NaOH. PGE2 levels in the supernatant are determined using the Amersham EIA kit. […]

[2] = system: PBL (peripheral blood leukocytes); assay: Cell cytotoxicity, MTT assay, PBL; format: cell-based; conditions: Leukocyte, 72 h, three days incubation
Description: (§1) Normal prostate cells (PREC, Cambrex East Rutherford N.J.), prostate cancer cell line (LNCaP, ATCC), PBL (peripheral blood leukocytes-buffy coat San Diego Blood Bank), and primary CLL cells were incubated for one to two days in RPMI-1640 and 10% FBS (fetal bovine serum). They were plated in 96-well plates at 100,000 cells/well. Titrated concentrations of the compound to be tested were added to the culture medium. The cells were incubated three days at 37° C., 5% CO2. Viability of the cells was assayed by standard MTT assay. Each drug concentration was done in duplicate. MTT assay: 10 μl of 12 mM 3,[4,5-dimethylthiazol-2-yl]-2,5-diphenyltetrazolium bromide (MTT) (SIGMA) was added to each well. The cells were incubated at 37° C., 5% CO2 for 4 hours. 100 μl of 20% SDS, 0.015M HCl was added to each well and the cells were incubated overnight. The plates were read at absorbance 595 nm.

primary CLL cells = assay: Cell cytotoxicity, MTT assay, primary CLL cells; format: cell-based; conditions: 72 h, three days incubation
Description: as §1

[3] = system: prostate cancer cell line (LNCaP); assay: Cell cytotoxicity, MTT assay, LNCaP; format: cell-based; conditions: Homo sapiens, 72 h, three days incubation
Description: as §1

[4] = system: Normal prostate cells (PREC); assay: Cell cytotoxicity, MTT assay, PREC; format: cell-based; conditions: Homo sapiens, 72 h, three days incubation
Description: as §1

[5] = system: cyclin D1 transcripts in LNCaP cells; assay: Cyclin D1 transcript expression by quantitative PCR in LNCaP cells; format: cell-based; conditions: 24 hours, compound 42 (50 μM), compound 36 (100 μM), compound 1 (20 μM), normalized to 18s, FIG. 2
Description: Cyclin D1 Transcript Expression Levels as measured by quantitative PCR assay. LNCaP cells were cultured at 37° C., 5% CO2 for 24 hours untreated or in the presence of R-etodolac (200 μM), compound 42 (50 μM), compound 36 (100 μM), or compound 1 (20 μM) (see Table II for structures). Cells were harvested by trypsinization, washed with PBS, and stored at −80° C. Total cellular RNA was prepared from cell pellets using the RNEasy® Mini kit (Qiagen, Inc., Valencia, Calif.). RNA was quantified by spectrophotometer. Approximately 2 μg of RNA was used to prepare cDNA using the ThermoScript™ RT-PCR System (Invitrogen, Carlsbad, Calif.).
The levels of cyclin D1 transcripts in the cDNA samples were measured using a quantitative PCR (qPCR) assay specific for cyclin D1. The cyclin D1 transcript was amplified using the following primer pair:
The cyclin D1 primers are described in a manuscript from Takayasu et al. (2001 Clin. Cancer Res. 7:901-908). All assays were performed in duplicate. All qPCR assays were performed and analyzed using a Bio-Rad iCycler (Bio-Rad, Hercules, Calif.). The levels of cyclin D1 transcripts were normalized for total input cDNA by performing a separate assay to detect the levels of a housekeeping gene (18s) using the following primer pair:
The samples were normalized for 18s transcript levels using the method of Livak et al. (2001 Methods 25:402-408). The level of cyclin D1 transcripts in the control sample was set to 1. FIG. 2 represents the averaged normalized cyclin D1 transcripts±standard deviation for three independent experiments (two independent experiments for compound 1).

[6] = system: Cyclin D1 protein in LNCaP cells; assay: Western blot of Cyclin D1 protein in LNCaP cell lysates; format: cell-based; conditions: LNCaP cell lysates from treated cells
[7] = system: Daudi human Burkitt Lymphoma derived tumors; assay: Daudi lymphoma murine xenograft model, efficacy; format: in vivo, male SCID mice; conditions: for mean tumor volume at termination of the study: p.o. in sesame oil, compound 47 250, compound 36 (printed 26) 250, compound 1 125, R-etodolac 400 mg/kg/d, control 1583 mm^3; for 4× Growth: time for the tumors to grow to 4× the initial volume at dosing, control 8.9 d; for 8× Growth: time for the tumors to grow to 8× the initial volume at dosing, control 14.5 d
Description: Male SCID mice, 6-8 weeks of age, obtained from Simonsen Laboratories, Inc. (Gilroy, Calif.) were housed in groups of five.
The Daudi human Burkitt Lymphoma cells were obtained from American Type Culture Collection and were inoculated subcutaneously (1.0×10^7 cells/mouse) on the flanks of SCID mice. After the tumors reached approximately 100 mm^3 treatment was initiated.
Body weights and tumor volume of all mice were measured and recorded twice weekly. Tumors were measured in three dimensions and volume calculated using the formula: […]. Time for the tumors (days) to grow to 4× and 8× the initial volume at dosing were assessed. Study compounds were administered at 125 or 250 mg/kg/day (M-F) via oral gavage until the end of the study.
The efficacy of chlorambucil (2 and 3 mg/kg/d), (R-etodoalc) (400 mg/kg/d) and compound 47 (250 mg/kg/d), compound 26 (250 mg/kg/d), and compound 1 (125 mg/kg/d) against Daudi derived tumors in male SCID mice were studied. R-etodolac and compounds 1, 26 and 47 were prepared in sesame oil. Both chlorambucil (ip, 0.1 ml) and compounds of the invention (per os [p.o.], 0.31 ml) were dosed daily (Monday to Friday) for two weeks. SDX-101 (0.31 ml) was dosed p.o. daily until the end of the study. […] However, all treated mice recovered after Day 2 and maintained their weights. There was no body weight loss observed in other treatment groups. At termination of the study, the control group mean tumor volume was 1583 mm^3. The mean tumor volume of chlorambucil treated groups were 864 and 766 mm^3 with 2 and 3 mg/kg/d chlorambucil treatment, respectively. The mean tumor volume of R-etodolac and compounds 1, […] and 47 were 802, 996, 1011, and 1157 mm^3 with compounds 47, 36, 1 and R-etodolac treatment, respectively. […] At termination of the study, tumor samples along with liver, kidney, and spleen samples from each group were collected and fixed in 10% buffered formalin for histopathology.

T2 sequence (P23219 24-599): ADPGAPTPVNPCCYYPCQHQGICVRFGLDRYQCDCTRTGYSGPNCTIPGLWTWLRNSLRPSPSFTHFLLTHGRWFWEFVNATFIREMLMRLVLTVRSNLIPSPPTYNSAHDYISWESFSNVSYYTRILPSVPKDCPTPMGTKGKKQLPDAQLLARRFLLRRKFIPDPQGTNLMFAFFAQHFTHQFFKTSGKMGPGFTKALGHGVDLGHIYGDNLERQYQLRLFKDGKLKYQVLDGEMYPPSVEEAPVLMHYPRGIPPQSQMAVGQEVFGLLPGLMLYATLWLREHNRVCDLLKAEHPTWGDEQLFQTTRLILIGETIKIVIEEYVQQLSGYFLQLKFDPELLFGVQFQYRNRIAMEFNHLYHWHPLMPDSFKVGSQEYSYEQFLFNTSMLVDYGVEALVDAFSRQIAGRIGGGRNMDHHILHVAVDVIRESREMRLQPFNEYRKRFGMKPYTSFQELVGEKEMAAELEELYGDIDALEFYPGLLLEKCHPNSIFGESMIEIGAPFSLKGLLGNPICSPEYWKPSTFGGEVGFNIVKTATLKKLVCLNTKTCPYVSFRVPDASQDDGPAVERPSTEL

SMILES | IC50 [1] [µM] | inhibition at 10 µM [1] [%] | IC50 (COX-1) [µM] | inhibition at 10 µM (COX-1) [%] | pIC50 [2] | pIC50 (primary CLL cells) | pIC50 [3] | pIC50 [4] | cyclin D1 mRNA expression [5] | Cyclin D1 protein expression (Western blot) [6] | mean tumor volume at termination of the study [7] [mm^3] | 4× Growth [7] [days] | 8× Growth [7] [days]
CCc1cccc2c3c([nH]c12)[C@@](CC)(CCO)OCC3 [Compound 35, R-2-(1,8-DIETHYL-1,3,4,9-TETRAHYDRO-PYRANO[3,4-b]INDOL-1-YL)-ETHANOL] | > 300 | -10 | > 300 | -69 | 3.85 | 4.00 | 4.17 | 3.66 |  |  |  |  | 
CCC1(CCO)OCCc2c1[nH]c1ccc(Br)cc21 (stereo not shown) [Compound 42, 2-(6-BROMO-1-ETHYL-1,3,4,9-TETRAHYDRO-PYRANO[3,4-b]INDOL-1-YL)-ETHANOL] |  |  |  |  |  |  | 4.92 |  | inhibit cyclin D1 mRNA expression | reduced Cyclin D1 protein expression |  |  | 
CCC1(CCO)OCCc2c1[nH]c1c(Cl)cc(Cl)cc21 (stereo not shown) [Compound 46, 2-(6,8-DICHLORO-1-ETHYL-1,3,4,9-TETRAHYDRO-PYRANO[3,4-b]INDOL-1-YL)-ETHANOL] |  |  |  |  | 4.70 |  | 4.74 |  |  |  |  |  | 
CCC1(CCO)OCCc2c1[nH]c1cccc(F)c21 (stereo not shown) [Compound 39, 2-(1-ETHYL-5-FLUORO-1,3,4,9-TETRAHYDRO-PYRANO[3,4-b]INDOL-1-YL)-ETHANOL] |  |  |  |  | 3.92 |  | 4.34 |  |  |  |  |  | 
CCC1(CCO)OCCc2c1[nH]c1c(C)cc(C)cc21 (stereo not shown) [Compound 45] |  |  |  |  | 4.05 |  | 5.10 |  |  |  |  |  | 
CCc1cccc2c3c([nH]c12)[C@@](CC)(CC(=O)O)OCC3 [R-etodolac, reference compound] |  |  |  |  |  |  |  |  |  | reduced Cyclin D1 protein expression | 1157 | 11 | 17
CCc1cc(Br)cc2c3c([nH]c12)C(CC)(CCO)OCC3 (stereo not shown) [Compound 47, 2-(6-BROMO-1,8-DIETHYL-1,3,4,9-TETRAHYDRO-PYRANO[3,4-b]INDOL-1-YL)-ETHANOL] | > 100 | 78 | 68.6 | 45 | 4.22 | 4.68 | 5.52 | 4.85 |  |  | 802 | 16 | 21.5
CCC1(CCO)OCCc2c1[nH]c1c(Cl)cccc21 (stereo not shown) [Compound 27, 2-(8-CHLORO-1-ETHYL-1,3,4,9-TETRAHYDRO-PYRANO[3,4-b]INDOL-1-YL)-ETHANOL] | > 300 | 3 | > 300 | 24 | 3.82 | 4.28 | 4.28 | 3.85 |  |  |  |  | 
CCc1cc(-c2ccccc2)cc2c3c([nH]c12)C(CC)(CCO)OCC3 (stereo not shown) [Compound 1, 2-(1,8-DIETHYL-6-PHENYL-1,3,4,9-TETRAHYDRO-PYRANO[3,4-b]INDOL-1-YL)-ETHANOL] | < 10 | 100 | < 10 | 96 | 4.12 | 4.14 | 4.85 | 4.28 | inhibit cyclin D1 mRNA expression | reduced Cyclin D1 protein expression | 1011 | 15.8 | 21.1
CCc1cccc2c3c([nH]c12)C(CC)(CC(=O)O)OCC3 (stereo not shown) [Etodolac, reference compound] | > 300 | -14 |  |  | 3.46 | 3.70 | 3.91 | 3.38 |  |  |  |  | 
CCC1(CCO)OCCc2c1[nH]c1cccc(Cl)c21 (stereo not shown) [Compound 38, 2-(5-CHLORO-1-ETHYL-1,3,4,9-TETRAHYDRO-PYRANO[3,4-b]INDOL-1-YL)-ETHANOL] |  |  |  |  | 4.14 |  | 4.64 |  |  |  |  |  | 
